Results as given in ChEMBL document CHEMBL5365428, “Alkyne as a Latent Warhead to Covalently Target SARS-CoV-2 Main Protease” (J Med Chem, 2023).
Activity calls are given as the source filed them. The calls are words filed in the database; no cut-off is given here.

Tested on: Replicase polyprotein 1ab (Severe acute respiratory syndrome coronavirus 2), P0DTD1 [C145A]
Experiment: Binding affinity to recombinant hexa-His tagged SARS-COV2 main protease C145A mutant expressed in HEK293T cells by in-gel fluorescence analysis
Format: cell-based

For `C#CC[C@H](NC(=O)C(F)(F)F)C(=O)N1C[C@H]2[C@@H]([C@H]1C(=O)N[C@H](C#C)C[C@@H]1CCNC1=O)C2(C)C`, the Activity was “inactive”.
